Laboratory results: patent US20230085307A1, “PYRIDAZINONE COMPOUND AND HERBICIDE” (NISSAN CHEMICAL CORPORATION, priority 2019, published 2023)

Tests used:
southern crabgrass = assay: Test Example 5: herbicidal effect by foliage application, plastic box (Table 20, symbol F); assay type: in vivo, southern crabgrass (Digitaria ciliaris); conditions: foliage application; for F: southern crabgrass, herbicidal effect: three weeks after application
In short: (§1)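 Foliar spray test: emulsion formulation diluted in water to a set application rate, sprayed onto 14-day-old plants raised in diluvial soil at 25° C to 30° C under glass. Both herbicidal effect and crop effect rated visually three weeks later.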

green foxtail = assay: Test Example 5: herbicidal effect by foliage application, plastic box (Table 20, symbol G); assay type: in vivo, green foxtail (Setaria viridis); conditions: foliage application; for G: green foxtail, herbicidal effect: three weeks after application
In short: as §1

barnyard grass = assay: Test Example 5: herbicidal effect by foliage application, plastic box (Table 20, symbol H); assay type: in vivo, barnyard grass (Echinochloa crus-galli); conditions: foliage application; for H: barnyard grass, herbicidal effect: three weeks after application
In short: as §1

wild oat = assay: Test Example 5: herbicidal effect by foliage application, plastic box (Table 20, symbol I); assay type: in vivo, wild oat (Avena fatua); conditions: foliage application; for I: wild oat, herbicidal effect: three weeks after application
In short: as §1

blackgrass = assay: Test Example 5: herbicidal effect by foliage application, plastic box (Table 20, symbol J); assay type: in vivo, blackgrass (Alopecurus myosuroides); conditions: foliage application; for J: blackgrass, herbicidal effect: three weeks after application
In short: as §1

Italian ryegrass = assay: Test Example 5: herbicidal effect by foliage application, plastic box (Table 20, symbol K); assay type: in vivo, Italian ryegrass (Lolium multiflorum); conditions: foliage application; for K: Italian ryegrass, herbicidal effect: three weeks after application
In short: as §1

windgrass = assay: Test Example 5: herbicidal effect by foliage application, plastic box (Table 20, symbol L); assay type: in vivo, windgrass (Apera spica-venti); conditions: foliage application; for L: windgrass, herbicidal effect: three weeks after application
In short: as §1

velvetleaf = assay: Test Example 5: herbicidal effect by foliage application, plastic box (Table 20, symbol M); assay type: in vivo, velvetleaf (Abutilon theophrasti); conditions: foliage application; for M: velvetleaf, herbicidal effect: three weeks after application
In short: as §1

redroot pigweed = assay: Test Example 5: herbicidal effect by foliage application, plastic box (Table 20, symbol N); assay type: in vivo, redroot pigweed (Amaranthus retroflexus); conditions: foliage application; for N: redroot pigweed, herbicidal effect: three weeks after application
In short: as §1

lambsquarters = assay: Test Example 5: herbicidal effect by foliage application, plastic box (Table 20, symbol O); assay type: in vivo, lambsquarters (Chenopodium album); conditions: foliage application; for O: lambsquarters, herbicidal effect: three weeks after application
In short: as §1

chickweed = assay: Test Example 5: herbicidal effect by foliage application, plastic box (Table 20, symbol P); assay type: in vivo, common chickweed (Stellaria media); conditions: foliage application; for P: chickweed, herbicidal effect: three weeks after application
Description: [Test Example 5] Herbicidal Effect Test by Foliage Application
Sterilized diluvial soil was placed in a plastic box having a length of 21 cm, a width of 13 cm, and a depth of 7 cm. The seeds of each of southern crabgrass, green foxtail, barnyard grass, wild oat, blackgrass, Italian ryegrass, windgrass, velvetleaf, redroot pigweed, lambsquarters, chickweed, false cleavers, persian speedwell, corn, soybean, rice, wheat, beet, and rapeseed were sowed in a spot-like manner and covered with the soil having a thickness of about 1.5 cm. Thereafter, the plants were grown in a greenhouse at 25° C. to 30° C. After 14-day growth of the plants, the emulsion agent of the compound of the present invention prepared according to Formulation Example 2 was diluted with water so as to achieve a predetermined herbicide amount, and the diluted emulsion agent was uniformly applied to a foliage part with a small-sized spray. Three weeks after the herbicide application, the effect of the herbicide on each plant was evaluated according to the criteria of Test Example 1.

persian speedwell = assay: Test Example 5: herbicidal effect by foliage application, plastic box (Table 20, symbol R); assay type: in vivo, Persian speedwell (Veronica persica); conditions: foliage application; for R: persian speedwell, herbicidal effect: three weeks after application
In short: as §1

[1] = 320 g/ha, evaluated three weeks after application

Cc1nn(C)c(=O)c(-c2c(-c3ccc(OCC(=O)NCC(F)(F)F)cc3)sc3ccccc23)c1O [1-145]
F: southern crabgrass, herbicidal effect (southern crabgrass; AAH 320 g/ha): 0 (Herbicidal rate of 5% or less (almost no effect)) | G: green foxtail, herbicidal effect (green foxtail; AAH 320 g/ha): 0 (Herbicidal rate of 5% or less (almost no effect)) | H: barnyard grass, herbicidal effect (barnyard grass; AAH 320 g/ha): 0 (Herbicidal rate of 5% or less (almost no effect)) | I: wild oat, herbicidal effect (wild oat; AAH 320 g/ha): 0 (Herbicidal rate of 5% or less (almost no effect)) | J: blackgrass, herbicidal effect (blackgrass; AAH 320 g/ha): 0 (Herbicidal rate of 5% or less (almost no effect)) | K: Italian ryegrass, herbicidal effect (Italian ryegrass; AAH 320 g/ha): 0 (Herbicidal rate of 5% or less (almost no effect)) | L: windgrass, herbicidal effect (windgrass; AAH 320 g/ha): 0 (Herbicidal rate of 5% or less (almost no effect)) | M: velvetleaf, herbicidal effect (velvetleaf; AAH 320 g/ha): 0 (Herbicidal rate of 5% or less (almost no effect)) | N: redroot pigweed, herbicidal effect (redroot pigweed; AAH 320 g/ha): 0 (Herbicidal rate of 5% or less (almost no effect)) | O: lambsquarters, herbicidal effect (lambsquarters; AAH 320 g/ha): 0 (Herbicidal rate of 5% or less (almost no effect)) | P: chickweed, herbicidal effect (chickweed; AAH 320 g/ha): 3 (Herbicidal rate of 40% or more and less than 70%) | R: persian speedwell, herbicidal effect (persian speedwell; AAH 320 g/ha): 0 (Herbicidal rate of 5% or less (almost no effect))

COc1cc(OC)cc(-c2sc3ccccc3c2-c2c(O)c(OC)nn(C)c2=O)c1 [1-184]
F: southern crabgrass, herbicidal effect (southern crabgrass; AAH 80 g/ha): 0 (Herbicidal rate of 5% or less (almost no effect)) | G: green foxtail, herbicidal effect (green foxtail; AAH 80 g/ha): 0 (Herbicidal rate of 5% or less (almost no effect)) | H: barnyard grass, herbicidal effect (barnyard grass; AAH 80 g/ha): 0 (Herbicidal rate of 5% or less (almost no effect)) | I: wild oat, herbicidal effect (wild oat; AAH 80 g/ha): 0 (Herbicidal rate of 5% or less (almost no effect)) | J: blackgrass, herbicidal effect (blackgrass; AAH 80 g/ha): 0 (Herbicidal rate of 5% or less (almost no effect)) | K: Italian ryegrass, herbicidal effect (Italian ryegrass; AAH 80 g/ha): 0 (Herbicidal rate of 5% or less (almost no effect)) | L: windgrass, herbicidal effect (windgrass; AAH 80 g/ha): 0 (Herbicidal rate of 5% or less (almost no effect)) | M: velvetleaf, herbicidal effect (velvetleaf; AAH 80 g/ha): 0 (Herbicidal rate of 5% or less (almost no effect)) | N: redroot pigweed, herbicidal effect (redroot pigweed; AAH 80 g/ha): 0 (Herbicidal rate of 5% or less (almost no effect)) | O: lambsquarters, herbicidal effect (lambsquarters; AAH 80 g/ha): 0 (Herbicidal rate of 5% or less (almost no effect)) | P: chickweed, herbicidal effect (chickweed; AAH 80 g/ha): 4 (Herbicidal rate of 70% or more and less than 90%) | R: persian speedwell, herbicidal effect (persian speedwell; AAH 80 g/ha): 0 (Herbicidal rate of 5% or less (almost no effect))

CCCC(=O)Oc1c(C)nn(C)c(=O)c1-c1c(-c2ccccc2SC)sc2ccc(C)cc12 [2-143]
herbicidal effect on F: southern crabgrass (criteria 0-5) (southern crabgrass; [1]): 0 (Herbicidal rate of 5% or less (almost no effect)) | herbicidal effect on G: green foxtail (criteria 0-5) (green foxtail; [1]): 0 (Herbicidal rate of 5% or less (almost no effect)) | herbicidal effect on H: barnyard grass (criteria 0-5) (barnyard grass; [1]): 0 (Herbicidal rate of 5% or less (almost no effect)) | herbicidal effect on I: wild oat (criteria 0-5) (wild oat; [1]): 0 (Herbicidal rate of 5% or less (almost no effect)) | herbicidal effect on J: blackgrass (criteria 0-5) (blackgrass; [1]): 0 (Herbicidal rate of 5% or less (almost no effect)) | herbicidal effect on K: Italian ryegrass (criteria 0-5) (Italian ryegrass; [1]): 0 (Herbicidal rate of 5% or less (almost no effect)) | herbicidal effect on L: windgrass (criteria 0-5) (windgrass; [1]): 0 (Herbicidal rate of 5% or less (almost no effect)) | herbicidal effect on M: velvetleaf (criteria 0-5) (velvetleaf; [1]): 0 (Herbicidal rate of 5% or less (almost no effect)) | herbicidal effect on N: redroot pigweed (criteria 0-5) (redroot pigweed; [1]): 0 (Herbicidal rate of 5% or less (almost no effect)) | herbicidal effect on O: lambsquarters (criteria 0-5) (lambsquarters; [1]): 0 (Herbicidal rate of 5% or less (almost no effect)) | herbicidal effect on P: chickweed (criteria 0-5) (chickweed; [1]): 3 (Herbicidal rate of 40% or more and less than 70%) | herbicidal effect on R: persian speedwell (criteria 0-5) (persian speedwell; [1]): 0 (Herbicidal rate of 5% or less (almost no effect))
